In brackets after ≈: the same amount, converted by molar mass.
Columns and labels:
Influenza A virus = test: Antiviral activity against Influenza A virus; assay type: functional, organism-based
[1] = Cytostatic activity against mouse L1210/0 cells; assay type: functional, cell-based; details: Mus musculus, L1210/0
MOLT-4 = test: Cytostatic activity against human Molt4/C8 cells; assay type: functional, cell-based; details: Homo sapiens, MOLT-4
CCRF-CEM = test: Cytostatic activity against human CEM/0 cells; assay type: functional, cell-based
[2] = Antiproliferative activity against mouse L1210/0 cells after 48 hrs by trypan blue staining method; assay type: functional, cell-based; details: L1210/0, 48 h
Hepatitis C virus = test: Antiviral activity against Hepatitis C virus; assay type: functional, organism-based, Hepacivirus hominis
[3] = test system: Human immunodeficiency virus 2; test: Antiviral activity against HIV2 infected in human CEM cells assessed as protection against virus-induced cytopathicity by giant cell formation assay; assay type: functional, organism-based; details: Human immunodeficiency virus 2, CCRF-CEM
[4] = test system: Human immunodeficiency virus 1; test: Antiviral activity against HIV1 infected in human CEM cells assessed as protection against virus-induced cytopathicity by giant cell formation assay; assay type: functional, organism-based; details: Human immunodeficiency virus 1, CCRF-CEM
[5] = molecular target: T1, Inosine-uridine preferring nucleoside hydrolase (Crithidia fasciculata, UniProt Q27546); test: Inhibition of Crithidia fasciculata inosine-uridine nucleoside hydrolase expressed in Escherichia coli using p-nitrophenyl beta-D-ribofuranoside as substrate by xanthine oxidase coupled enzyme assay
T1 sequence (Q27546 whole entry): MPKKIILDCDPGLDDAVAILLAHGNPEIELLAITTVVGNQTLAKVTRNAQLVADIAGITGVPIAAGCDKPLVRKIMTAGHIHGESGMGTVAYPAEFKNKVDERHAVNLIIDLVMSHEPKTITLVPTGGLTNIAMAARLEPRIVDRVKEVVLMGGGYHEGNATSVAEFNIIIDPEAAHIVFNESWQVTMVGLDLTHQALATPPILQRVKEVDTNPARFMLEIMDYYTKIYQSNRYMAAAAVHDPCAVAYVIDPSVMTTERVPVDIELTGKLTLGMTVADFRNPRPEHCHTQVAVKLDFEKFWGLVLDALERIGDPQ

[6] = molecular target: T2, Inosine-adenosine-guanosine-nucleoside hydrolase (Trypanosoma brucei brucei, UniProt O15727); test: Inhibition of Trypanosoma brucei brucei inosine-adenosine-guanosine nucleoside hydrolase expressed in Escherichia coli
T2 sequence (O15727 whole entry): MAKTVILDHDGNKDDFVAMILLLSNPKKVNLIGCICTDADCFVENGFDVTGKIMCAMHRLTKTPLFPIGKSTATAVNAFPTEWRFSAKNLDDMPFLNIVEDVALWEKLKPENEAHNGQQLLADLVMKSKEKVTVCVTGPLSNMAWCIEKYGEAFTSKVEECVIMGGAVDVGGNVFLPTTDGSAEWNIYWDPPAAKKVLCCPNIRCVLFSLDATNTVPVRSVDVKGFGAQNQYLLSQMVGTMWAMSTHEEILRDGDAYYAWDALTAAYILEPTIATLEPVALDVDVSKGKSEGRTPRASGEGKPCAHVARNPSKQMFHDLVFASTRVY

[7] = Antiproliferative activity against human Molt4/C8 cells; assay type: functional, cell-based; details: MOLT-4
[8] = Antiproliferative activity against human CEM/0 cells; assay type: functional, cell-based; details: CCRF-CEM
[9] = Antiproliferative activity against mouse L1210/0 cells; assay type: functional, cell-based
Cytomegalovirus [10] = test: Antiviral activity against Cytomegalovirus Davis 07/1 infected in HEL cells; assay type: functional, organism-based; details: Human betaherpesvirus 5, Davis 07/1, HEL
Cytomegalovirus [11] = test: Antiviral activity against Cytomegalovirus AD169 infected in HEL cells; assay type: functional, organism-based; details: Human betaherpesvirus 5, AD169, HEL
Isoleucine--tRNA ligase = Isoleucine--tRNA ligase (Escherichia coli K-12, UniProt P00956); test: Inhibition of Escherichia coli isoleucyl-tRNA synthetase assessed as decrease in [3H]isoleucyl-tRNA generation
Human alphaherpesvirus 3 = test: Antiviral activity against TK-deficient Varicella-zoster virus infected in HEL cells; assay type: functional, organism-based; details: Human alphaherpesvirus 3, HEL

Chain of Isoleucine--tRNA ligase (P00956 whole entry): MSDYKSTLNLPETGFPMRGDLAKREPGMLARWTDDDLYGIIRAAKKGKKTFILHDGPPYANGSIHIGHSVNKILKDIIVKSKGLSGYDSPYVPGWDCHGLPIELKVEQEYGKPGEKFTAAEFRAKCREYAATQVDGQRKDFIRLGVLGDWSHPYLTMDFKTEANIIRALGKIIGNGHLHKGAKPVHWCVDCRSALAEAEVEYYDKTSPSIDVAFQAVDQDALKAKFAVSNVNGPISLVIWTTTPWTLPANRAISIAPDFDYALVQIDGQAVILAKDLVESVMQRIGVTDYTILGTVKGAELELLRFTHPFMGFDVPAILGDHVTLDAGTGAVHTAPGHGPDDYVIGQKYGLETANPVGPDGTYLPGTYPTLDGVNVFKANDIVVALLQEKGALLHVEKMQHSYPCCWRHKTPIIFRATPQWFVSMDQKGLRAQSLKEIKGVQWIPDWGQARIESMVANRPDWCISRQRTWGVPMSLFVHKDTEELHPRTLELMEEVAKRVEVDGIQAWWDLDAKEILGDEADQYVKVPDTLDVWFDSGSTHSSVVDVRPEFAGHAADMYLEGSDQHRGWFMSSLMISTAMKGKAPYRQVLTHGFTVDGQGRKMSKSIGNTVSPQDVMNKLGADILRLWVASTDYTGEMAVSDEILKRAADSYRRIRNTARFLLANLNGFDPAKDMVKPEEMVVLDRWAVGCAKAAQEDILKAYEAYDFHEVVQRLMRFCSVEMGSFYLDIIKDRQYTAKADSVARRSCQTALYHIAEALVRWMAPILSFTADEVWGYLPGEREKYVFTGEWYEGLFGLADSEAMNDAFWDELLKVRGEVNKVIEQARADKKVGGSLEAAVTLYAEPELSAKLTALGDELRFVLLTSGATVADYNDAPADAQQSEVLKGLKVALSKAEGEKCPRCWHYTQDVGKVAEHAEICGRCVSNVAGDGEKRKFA

## Cc1cn(C[C@H]2C[C@H](O)[C@@H](CO)O2)c(=O)[nH]c1=O
Influenza A virus
  IC50: 70.4 µg/mL (≈ 275 µM)

## CCCNc1ncnc2c1ncn2C[C@@H]1C[C@H](CO)c2ccccc21
[1]
  IC50: 24 µg/mL (≈ 71.1 µM)
MOLT-4
  IC50: 24 µg/mL (≈ 71.1 µM)
CCRF-CEM
  IC50: 24 µg/mL (≈ 71.1 µM)

## CCOc1ncnc2c1ncn2C[C@@H]1C[C@H](CO)c2ccccc21
[1]
  IC50: 24 µg/mL (≈ 74 µM)
MOLT-4
  IC50: 24 µg/mL (≈ 74 µM)
CCRF-CEM
  IC50: 24 µg/mL (≈ 74 µM)

## Nc1ncnc2c1ncn2C[C@H]1C=C[C@@H](CO)C1
[2]
  IC50: > 200 µM

## OCC12CCC(Cn3cnc4c(Cl)ncnc43)(O1)c1ccccc12 (centres undefined)
Hepatitis C virus
  EC50: 45.1 µM

## OCC12CCC(O1)c1cc3ccccc3cc12 (centres undefined)
Hepatitis C virus
  EC50: 6.31 µM

## Nc1nc2c(ncn2C[C@H]2C=C[C@@H](CO)C2)c(=O)[nH]1
[2]
  IC50: > 200 µM

## Nc1nc(NC2CCCC2)c2ncn(C[C@@H]3C[C@H](CO)c4c(-c5ccccc5)nnc(-c5ccccc5)c43)c2n1
[2]
  IC50: 65.7 µM

## Nc1ncnc2c1ncn2C[C@H]1C[C@H](O)[C@@H](CO)O1
Influenza A virus
  IC50: 49.2 µg/mL (≈ 185 µM)

## OC[C@@]12O[C@@](Cn3cnc4c(Cl)ncnc43)(c3ccccc31)[C@H](O)[C@@H]2O
Hepatitis C virus
  EC50: 45.1 µM

## O=c1ccn(C[C@H]2C[C@H](OCc3ccccc3)[C@@H](COCc3ccccc3)O2)c(=O)[nH]1
Influenza A virus
  IC50: 108 µg/mL (≈ 256 µM)

## OCC12C=CC(Cn3cnc4c(Cl)ncnc43)(O1)c1ccccc12 (centres undefined)
Hepatitis C virus
  EC50: 45.1 µM

## O=c1[nH]c(=O)n([C@H]2CCC[C@H]2CO)cc1I
[3]
  EC50: 12.5 µg/mL (≈ 37.2 µM)
[4]
  EC50: 12.5 µg/mL (≈ 37.2 µM)

## Nc1nc(O)c2ncn(C[C@@H]3N[C@H](CO)[C@@H](O)[C@H]3O)c2n1
[5]
  Ki: 5.4 µM
[6]
  Ki: 3.6 µM

## Nc1ncnc2c1ncn2C[C@H]1CCC[C@H]1CO
[7]
  IC50: 100 µg/mL (≈ 404 µM)
[8]
  IC50: 100 µg/mL (≈ 404 µM)
[9]
  IC50: 100 µg/mL (≈ 404 µM)

## Cn1ncc2c1[C@@H](CO[Si](c1ccccc1)(c1ccccc1)C(C)(C)C)C[C@H]2Cn1cnc2c(O)ncnc21
[1]
  IC50: 3.2 µg/mL (≈ 5.94 µM)
MOLT-4
  IC50: 3.2 µg/mL (≈ 5.94 µM)
CCRF-CEM
  IC50: 3.2 µg/mL (≈ 5.94 µM)

## Nc1nc2c(ncn2COC(CO)CO)c(=O)[nH]1 [GANCICLOVIR]
Cytomegalovirus [10]
  EC50: 0.4 µM
Cytomegalovirus [11]
  EC50: 0.25 µM

## Clc1ncnc2c1ncn2CC12C=CC(O1)c1ccccc12 (centres undefined)
Hepatitis C virus
  EC50: 6.31 µM

## CC[C@H](C)[C@H](N)C(=O)N(O)C[C@H]1O[C@@H](Cn2cnc3c(N)ncnc32)[C@H](O)[C@@H]1O
Isoleucine--tRNA ligase
  IC50: > 128 µM

## Cn1ncc2c1[C@H](Cn1cnc3c(Cl)ncnc31)C[C@@H]2CO[Si](c1ccccc1)(c1ccccc1)C(C)(C)C
[1]
  IC50: 3.2 µg/mL (≈ 5.74 µM)
MOLT-4
  IC50: 3.2 µg/mL (≈ 5.74 µM)
CCRF-CEM
  IC50: 3.2 µg/mL (≈ 5.74 µM)

## OC[C@H]1C[C@@H](Cn2cnc3c(Cl)ncnc32)c2ccccc21
[1]
  IC50: 24 µg/mL (≈ 76.2 µM)
MOLT-4
  IC50: 24 µg/mL (≈ 76.2 µM)
CCRF-CEM
  IC50: 24 µg/mL (≈ 76.2 µM)

## O=c1[nH]c(=O)n(C2CCCC2CO)cc1I (centres undefined)
[7]
  IC50: 65.8 µg/mL (≈ 196 µM)
[8]
  IC50: 65.8 µg/mL (≈ 196 µM)
[9]
  IC50: 65.8 µg/mL (≈ 196 µM)

## OC[C@H]1C[C@@H](Cn2cnc3c(NC4CC4)ncnc32)c2ccccc21
[1]
  IC50: 24 µg/mL (≈ 71.6 µM)
MOLT-4
  IC50: 24 µg/mL (≈ 71.6 µM)
CCRF-CEM
  IC50: 24 µg/mL (≈ 71.6 µM)

## Nc1ncnc2c1ncn2C[C@@H]1C[C@H](CO)c2ccccc21
[1]
  IC50: 24 µg/mL (≈ 81.3 µM)
MOLT-4
  IC50: 24 µg/mL (≈ 81.3 µM)
CCRF-CEM
  IC50: 24 µg/mL (≈ 81.3 µM)

## Nc1ccn(C[C@H]2C[C@H](OCc3ccccc3)[C@@H](COCc3ccccc3)O2)c(=O)n1
Influenza A virus
  IC50: 57.4 µg/mL (≈ 136 µM)

## Cc1cn(C[C@H]2C[C@H](OCc3ccccc3)[C@@H](COCc3ccccc3)O2)c(=O)[nH]c1=O
Influenza A virus
  IC50: 70.3 µg/mL (≈ 161 µM)

## Nc1nc(Cl)c2ncn(C[C@@H]3C[C@H](CO)c4c(-c5ccccc5)nnc(-c5ccccc5)c43)c2n1
[2]
  IC50: > 200 µM

## Cc1ccc(-c2ncnc3c2ncn3C[C@@H]2C[C@H](CO)c3ccccc32)cc1
[1]
  IC50: 1.4 µg/mL (≈ 3.78 µM)
MOLT-4
  IC50: 1.4 µg/mL (≈ 3.78 µM)
CCRF-CEM
  IC50: 1.4 µg/mL (≈ 3.78 µM)

## CC(C)(C)[Si](OC[C@H]1C[C@@H](Cn2cnc3c(Cl)nc(N)nc32)c2cn(Cc3ccccc3)nc21)(c1ccccc1)c1ccccc1
Cytomegalovirus [10]
  EC50: 0.39 µM
Cytomegalovirus [11]
  EC50: 0.44 µM
Human alphaherpesvirus 3
  EC50: 2.1 µM
